In patent US20260166159A1, “KRAS G12D DEGRADATION AGENT, AND PREPARATION METHOD AND USE THEREFOR” (LEADINGTAC PHARMACEUTICAL (SHAOXING) CO., LTD., priority 2022, published 2026) one finds DC50, Dmax and IC50 data, which are given here for five molecules.

For assay [1], the target named is T1, KRAS-G12D (Homo sapiens, UniProt P01116, G12D).
T1 construct: endogenous in cells; host or cells: A-427 (ATCC), AGS, AsPc-1, Panc 04.03
Kind of assay: KRAS-G12D degradation assay (Western Blot), AsPc-1 cells. The format is cell-based. The note with it: for DC50: 24 h; for Dmax: ASPC1, 24 h. As for the experimental part: The degradation effects of the compounds on KRAS-G12D were investigated on KRAS G12D mutant human lung cancer cell A-427 (ATCC), KRAS G12D mutant human gastric cancer cell AGS, KRAS G12D mutant human metastatic pancreatic cancer cell AsPc-1, and KRAS G12D mutant human pancreatic adenocarcinoma cell Panc 04.03. The specific procedures were as follows: 0.95 mL of cells were seeded into each well of a 24-well cell culture plate to achieve a cell density of 5×10^5 cells/well; and the cell plate was incubated in an incubator at 37° C. with 5% CO2 overnight. Then 50 μL of the compound solution after dilution was added to each of the wells with the corresponding cells, so that the final concentration of the compound was in a range of 0.03-3000 nM. The final concentration of DMSO was 0.25%. After the compounds were added, the cell plate was incubated in the incubator at 37° C. with 5% CO2 for 24 h. The culture medium in the 24-well cell culture plate was removed, and the plate was washed twice with 1×PBS (KeyGEN). 120 μL of RIPA (strong) lysis buffer (Beyotime) supplemented with 1 mM phenylmethylsulfonyl fluoride, a protease inhibitor mixture (Beyotime), and a protease phosphatase inhibitor mixture (Beyotime) was added to lyse adherent A-427 cells at the bottom of the cell culture plate. After the plate was left to stand on ice for 30 min, the protein lysate in each well was transferred to a 1.5 mL centrifuge tube and centrifuged at 15000 g for 20 min at 4° C. The cell lysate supernatants after centrifugation were cryopreserved in a refrigerator at −80° C. for later use.
After the samples of the cell lysate supernatants that had been prepared were thawed from the refrigerator at −80° C., the total protein concentrations of the cell lysates were determined using a BCA protein quantification kit (Tiangen). The total protein concentrations of the samples were then adjusted to 0.5 μg/μL with PBS and 5×SDS-PAGE protein loading buffer (Beyotime), and the samples were incubated in a water bath at 100° C. for 15 min. The samples were then incubated in an ice bath for 5 min and centrifuged at 14000 g for 1 min at 4° C., and the supernatants were mixed well as loading samples for the Western Blot assay. The samples were loaded into wells of a 10% precast gel (KeyGEN) with a loading volume of 10 μL (total protein: 5 μg), a sufficient Tris-MOPS-SDS running buffer (Adamas) was added, and then electrophoresis was performed at a constant voltage of 120 V for 55 min. After the electrophoresis, the proteins on the gel were transferred to PVDF membranes at a constant current of 250 mA for 55 min. After the membrane transfer, the PVDF membranes were incubated in 1× Quick Block blocking buffer (Beyotime) at room temperature for 30 min. After the blocking, the PVDF membranes were separately incubated at 4° C. overnight with the KRAS antibody (Abcam) diluted in a ratio of 1:1000 and the […] antibody (Abcam) diluted in a ratio of 1:2000 in 5% BSA as the diluent, and then washed with 1×TBST buffer (2.4 g of Tris, 8.8 g of NaCl, 1.5 mL of Tween 20, with pH adjusted to 7.4, with the volume brought to 1 L) 3 times for 10 min/time. The membranes were incubated with a secondary antibody (Abcam) diluted in 5% BSA at room temperature for 2 h, and then washed with 1×TBST buffer 3 times for 10 min/time. Finally, the membranes were incubated with Clarity Western ECL Substrate (BIO-RAD) for 5 min for luminescence and color development, and a ChemiScope 6200 Touch chemiluminescence imaging system (Clinx) was used for color development and protein mapping. Gray value analysis of the protein maps was performed using the chemiluminescence analysis software (Clinx). The gray correction value for each sample was calculated using the formula: gray correction value=(gray value of target protein/gray value of corresponding internal reference)×10^3. Then degradation rates were calculated by comparison with the gray correction value of the control group. […]

The subject of assay [2] is KRAS G12D mutant human pancreatic cancer cell HPAC. Kind of assay: 3D cell proliferation inhibition assay, HPAC. It counts as cell-based. As to conditions: 168 h, 7 days, CTG. An excerpt: (§1) The inhibitory effects of the compounds on 3D cell proliferation were investigated on KRAS G12D mutant human lung cancer cell A427, KRAS G12D mutant human gastric cancer cell AGS, KRAS G12D mutant human metastatic pancreatic cancer cell AsPc-1, KRAS G12D mutant human pancreatic cancer cell Panc 04.03, KRAS G12D mutant human pancreatic cancer cell HPAC, KRAS G12V mutant human lung squamous cell carcinoma cell SW900, and KRAS WT human gastric cancer cell MKN1. The specific procedures were as follows:
(§2) 10 μL of each compound solution diluted in a gradient was added to corresponding wells of a 96-well low-adsorption microplate (PerkinElmer), so that the final concentrations of the test compounds in the reaction system were in a range of 10000-0.026 nM. The final concentration of DMSO was 0.2%. Then 90 µL of cells were correspondingly seeded into each well to achieve a cell density of 5×10^2 cells/well (the cell density of SW900 was 5×10^1 cells/well, and the cell density of MKN1 was 1×10^3 cells/well). In addition to test wells for the test compounds, both a DMSO control well and a medium control well were set, with the DMSO control well containing DMSO and cells and the medium well containing only a medium. After the sample loading, the 96-well low-adsorption microplate was incubated in an incubator at 37° C. with 5% carbon dioxide for 7 days. After 7 days, the microplate was taken out, and 100 μL of CTG reagent (Promega) was added to each well. The plate was incubated at room temperature for 60 min and read on a microplate reader EnVision by the chemiluminescence program. The inhibition rates of the compounds at each concentration were calculated using the formula for the percentage inhibition of cell proliferation: inhibition rate %=(mean value of DMSO control group−single concentration reading value of compound)/(mean value of DMSO control group−mean value of medium control group)×100. Then non-linear curve fittings for logarithmic concentration-inhibition rate were performed by GraphPad Prism 8, and the IC50 values of the compounds were obtained (Table 5).

In assay [3] the test system is KRAS G12D mutant human metastatic pancreatic cancer cell AsPc-1. As to the kind of experiment: 3D cell proliferation inhibition assay, AsPc-1. The format is cell-based. As to conditions: ASPC1, 168 h, AsPc-1, 7 days, CTG, numeric values.
Source text: as §1, §2

The test system of assay [4] is KRAS G12D mutant human gastric cancer cell AGS. Kind of assay: 3D cell proliferation inhibition assay, AGS. The format is cell-based. The note with it: 168 h, 7 days, CTG, numeric values. In outline:
(§3)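 For this 7-day anchorage-independent assay, 5×10^2 cells per well were exposed to 10000–0.026 nM test compound with 0.2% DMSO at 37 °C. ATP-based luminescence (CTG) gave viability, and percent inhibition versus DMSO controls was curve-fitted to obtain IC50.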

Assay [5] addresses T1, KRAS-G12D. As to the kind of experiment: KRAS-G12D degradation assay (Western Blot), A-427 cells. It counts as cell-based. The note with it: A427 cells, 24 h, numeric values. The procedure, abridged: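 Western blotting of lysates (5 μg protein) quantified KRAS against a β-actin reference after 24 h exposure to compound at final 0.03–3000 nM in 0.25% DMSO. Cells were A-427, AGS, AsPc-1 or Panc 04.03, all KRAS G12D, at 5×10^5/well. Degradation versus control yielded DC50 and Dmax.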

Assay [6] has as its target T2, Human KRAS G12D 6His-tagged (Homo sapiens, UniProt P01116, G12D).
T2 construct: purchased PerkinElmer
Kind of assay: KRAS-G12D/GTP binding assay (HTRF). As to conditions: numeric values. As for the experimental part: In this method, the inhibitory effects of the compounds on the binding of KRAS-G12D to GTP were assayed by a homogeneous time-resolved fluorescence (HTRF) technique using a KRAS-G12D/GTP binding assay kit (PerkinElmer).
The experimental procedures were as follows (refer to the kit instructions for detailed test methods): the compounds of the present disclosure were each firstly dissolved in DMSO at a concentration of 20 mM, and then diluted in an equal gradient with a buffer in the kit, so that the final concentrations of the test compounds in the reaction system were in a range of 0.02-5000 nM, and the final concentration of DMSO was 0.5%. 5 μL of each compound was incubated with 5 μL of 1× Human KRAS G12D 6His-tagged (PerkinElmer), 5 μL of 1×6His Eu Cryptate Antibody (PerkinElmer), and 5 μL of 1×GTP Red reagent (PerkinElmer) in a 384-well plate (Greiner) at 25° C. for 1 h. After the incubation was completed, the fluorescence intensity of each well was measured at the excitation wavelength of 337 nm and the emission wavelengths of 620 nm and 665 nm with an EnVision microplate reader (PerkinElmer) in the HTRF mode, and Ratio values were calculated using the formula: Ratio=(665 nm/620 nm)×[…]. The inhibition rates of the compounds at each concentration were calculated by comparing the fluorescence intensity ratio with that of the control group. Then non-linear curve fittings for logarithmic concentration-inhibition rate were performed using the GraphPad Prism 8 analysis software, and the IC50 values of the compounds were obtained (Table 2).

Assay [7] has as its system KRAS G12D mutant human lung cancer cell A427. As to the kind of experiment: 3D cell proliferation inhibition assay, A427. The note with it: A-427, 168 h, A427, 7 days, CTG, numeric values. The format is cell-based. In outline: as §3

T1 sequence (P01116 1-188 isoform P01116-2 G12D): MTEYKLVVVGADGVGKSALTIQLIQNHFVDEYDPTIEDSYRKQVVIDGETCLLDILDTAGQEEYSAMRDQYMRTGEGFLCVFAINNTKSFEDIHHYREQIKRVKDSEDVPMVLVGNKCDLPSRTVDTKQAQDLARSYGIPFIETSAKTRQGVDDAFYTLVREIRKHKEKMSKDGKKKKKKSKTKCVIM
T2 sequence (P01116 1-188 isoform P01116-2 G12D): as above

`COc1ccc(C(=O)N2CCC3(CCC(CN4CCN(CC5(COc6nc(N7CC8CCC(C7)N8)c7cnc(-c8cc(O)cc(Cl)c8C8CC8)c(F)c7n6)CC5)CC4)CC3)CC2)cc1N1CCC(=O)NC1=O` [Example 89] had a DC50 on KRAS-G12D [1] of 94.7 nM. On KRAS-G12D [1], this molecule came in with a Dmax of 69%. Further, the IC50 in assay [2] was found to be 12.8 nM; in assay [3], 11.5 nM; in assay [4], 8.65 nM.
For `C#Cc1c(F)ccc2cc(O)cc(-c3ncc4c(N5CC6CCC(C5)N6)nc(OCC(CN5CCN(CC6CCC7(CC6)CCN(C(=O)c6ccc(OC)c(N8CCC(=O)NC8=O)c6)CC7)CC5)OC)nc4c3F)c12` (stereo not shown) [Example 105, 1-(5-(9-((4-(3-((4-(3,8-diazabicyclo[3.2.1]octan-3-yl)-7-(8-ethynyl-7-fluoro-3-hydroxynaphthalen-1-yl)-8-fluoropyrido[4,3-d]pyrimidin-2-yl)oxy)-2-methoxypropyl)piperazin-1-yl)methyl)-3-azaspiro[5.5]undecane-3-carbonyl)-2-methoxyphenyl)dihydropyrimidine-2,4(1H,3H)-dione], the IC50 in assay [2] is 12.7 nM; in assay [3] it was 93.5 nM.
Regarding `[2H]C([2H])(C1CCC2(CC1)CCN(C(=O)c1ccc(C)c(N3CCC(=O)NC3=O)c1)CC2)N1CCN(CC2(COc3nc(N4CC5CCC(C4)N5)c4ccc(-c5cc(O)cc6ccc(F)c(C#C)c56)c(F)c4n3)CC2)CC1` [Example 107, 1-(5-(9-((4-((1-(((4-(3,8-diazabicyclo[3.2.1]octan-3-yl)-7-(8-ethynyl-7-fluoro-3-hydroxynaphthalen-1-yl)-8-fluoroquinazolin-2-yl)oxy)methyl)cyclopropyl)methyl)piperazin-1-yl)methyl-d2)-3-azaspiro[5.5]undecane-3-carbonyl)-2-methylphenyl)dihydropyrimidine-2,4(1H,3H)-dione], the DC50 was 13.7 nM at KRAS-G12D [1] and 4.98 nM at KRAS-G12D [5]. Also, the results for the Dmax on KRAS-G12D [1] and on KRAS-G12D [5] (A-427) were 97.5% and 94.7%, respectively. Further, the IC50 in assay [2] is 10.8 nM; in assay [3], 27.5 nM.
Turning to `C#Cc1c(F)ccc2cc(O)cc(-c3ncc4c(N5CC6CCC(C5)N6)nc(OCC(C)CN5CCN(CC6CCC7(CC6)CCN(C(=O)c6ccc(C)c(N8CCC(=O)NC8=O)c6)CC7)CC5)nc4c3F)c12` (stereo not shown) [Example 108, 1-(5-(9-((4-(3-((4-(3,8-diazabicyclo[3.2.1]octan-3-yl)-7-(8-ethynyl-7-fluoro-3-hydroxynaphthalen-1-yl)-8-fluoropyrido[4,3-d]pyrimidin-2-yl)oxy)-2-methylpropyl)piperazin-1-yl)methyl)-3-azaspiro[5.5]undecane-3-carbonyl)-2-methylphenyl)dihydropyrimidine-2,4(1H,3H)-dione], the IC50 in assay [2] worked out at 6.87 nM; in assay [3], 4.53 nM; in assay [6], 3.22 nM.
The molecule `C#Cc1c(F)ccc2cc(O)cc(-c3ncc4c(N5CC6CCC(C5)N6)nc(OC[C@@H](C)CN5CCN(CC6CCC7(CC6)CCN(C(=O)c6ccc(OC)c(N8CCC(=O)NC8=O)c6)CC7)CC5)nc4c3F)c12` [Example 254, 1-(5-(9-((4-((S)-3-((4-(3,8-diazaspirobicyclo[3.2.1]octan-3-yl)-7-(8-ethynyl-7-fluoro-3-hydroxynaphthalen-1-yl)-8-fluoropyrido[4,3-d]pyrimidin-2-yl)oxy)-2-methylpropyl)piperazin-1-yl)methyl)-3-azaspiro[5.5]undecane-3-carbonyl)-2-methoxyphenyl)dihydropyrimidine-2,4(1H,3H)-dione] returned a DC50 at KRAS-G12D [1] of 32.5 nM. Besides, the Dmax on KRAS-G12D [1] is 83.4%. Also, the IC50 stood at 14.3 nM in assay [2], 74.7 nM in assay [7], 7.85 nM in assay [3] and 13 nM in assay [4].
